Laboratory results reported in US11732143B2, “Identification and characterization of novel corrosion inhibitor molecules” (ECOLAB USA INC., priority 2015, dated 2023).

Tested on: live bacteria
Experiment: Biocide efficiency, fluorescence detection of ATP, percentage kill / viable bacteria
Type: cell-based
Conditions: for biocidal efficiency in conjunction with biocide 4: 120 ppm corrosion inhibitor + 100 ppm biocide 4 (glutaraldehyde); for biocidal efficiency of the corrosion inhibitor by itself (viable microorganisms): 120 ppm corrosion inhibitor alone
Experimental: Biocidal efficiency of the biocide and biocide in conjunction with corrosion inhibitors were analyzed using fluorescence to indirectly detect the amount of ATP in a given sample. ATP provides a direct correlation to live bacteria (1fg of ATP=1 cell). Through a standard curve, it is the possible to translate the amount of ATP in a given sample to the number of cells/mL in a given sample. Percentage kill was calculated by normalizing the detected bacterial numbers in a biocide or a biocide and corrosion inhibitor treated sample to untreated sample.

2-hydroxylethyl-N-methylbutane-1-sulphonamide
biocidal efficiency in conjunction with biocide 4: does not have any biocidal properties
biocidal efficiency of the corrosion inhibitor by itself (viable microorganisms): does not have any biocidal properties

Cocoamphodiproprionate sodium salt
biocidal efficiency in conjunction with biocide 4: modest increase in the biocidal properties of biocide 4
biocidal efficiency of the corrosion inhibitor by itself (viable microorganisms): not efficient in reducing the number of viable microorganisms by itself
